Assay results reported in publication PMC12364708, “Structures and mechanism of the AUX/LAX transporters involved in auxin import” (Nature Plants, 2025).

Assays:
[1] = biological target: T1, LAX3 (Arabidopsis thaliana, UniProt Q9CA25); test: competition with 3H-IAA uptake into Xenopus oocytes; assay type: cell-based; settings: 100 nM 3H-IAA; pH 6, room temperature, 8 min; competitive
T1 construct: full-length wild type, cRNA injected into Xenopus laevis oocytes
T1 sequence (Q9CA25 1-470): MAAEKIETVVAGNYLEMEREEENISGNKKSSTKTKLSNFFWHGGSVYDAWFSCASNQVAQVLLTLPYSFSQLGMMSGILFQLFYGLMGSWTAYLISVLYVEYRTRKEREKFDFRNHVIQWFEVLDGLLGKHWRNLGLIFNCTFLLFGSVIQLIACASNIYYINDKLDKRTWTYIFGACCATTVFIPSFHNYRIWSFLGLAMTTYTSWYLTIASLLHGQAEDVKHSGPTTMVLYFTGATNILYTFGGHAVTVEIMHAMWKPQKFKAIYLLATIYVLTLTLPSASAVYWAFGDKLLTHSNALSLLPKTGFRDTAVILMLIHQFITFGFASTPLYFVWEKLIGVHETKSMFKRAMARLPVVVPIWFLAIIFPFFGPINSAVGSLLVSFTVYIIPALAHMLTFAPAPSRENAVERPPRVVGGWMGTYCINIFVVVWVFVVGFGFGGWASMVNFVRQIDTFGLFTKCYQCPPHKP

[2] = biological target: T2, LAX3 (residues 44–470) (Arabidopsis thaliana, UniProt Q9CA25); test: cryo-EM structure, […] Å; settings: pH 7.5; 5 mM 2-NOA; LMNG; central binding pocket, fully occluded
T2 construct: N-terminally truncated, residues 44-470; C-terminal TEV site and His10 tag, cut with TEV; expressed in Saccharomyces cerevisiae DSY-5; LMNG/CHS; 47 kDa
T2 sequence (Q9CA25 44-470): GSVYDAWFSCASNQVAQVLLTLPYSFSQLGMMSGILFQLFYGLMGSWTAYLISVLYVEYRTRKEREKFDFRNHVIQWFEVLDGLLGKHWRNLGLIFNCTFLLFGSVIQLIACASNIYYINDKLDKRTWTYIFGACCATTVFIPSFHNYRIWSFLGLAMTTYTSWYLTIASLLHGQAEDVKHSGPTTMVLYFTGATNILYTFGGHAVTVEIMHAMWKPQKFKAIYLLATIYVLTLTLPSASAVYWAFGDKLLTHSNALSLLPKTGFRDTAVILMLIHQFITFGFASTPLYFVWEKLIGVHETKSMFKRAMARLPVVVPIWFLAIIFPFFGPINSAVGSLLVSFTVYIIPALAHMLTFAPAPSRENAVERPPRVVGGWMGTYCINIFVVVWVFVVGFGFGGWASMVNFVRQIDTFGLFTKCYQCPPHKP

[3] = biological target: T2, LAX3 (residues 44–470); test: cryo-EM structure, […] Å; settings: pH 7.5; 5 mM IAA; LMNG; central binding pocket, inward semi-occluded

SMILES	inhibition of IAA uptake at 10 μM [1]	cryo-EM structure, 2.88 Å [2]	cryo-EM structure, 3.21 Å [3]
O=C(O)COc1ccc(Cl)cc1Cl [2,4-D]	these data demonstrate a competitive effect of all three compounds	–	–
O=C(O)COc1cccc2ccccc12 [1-NOA]	these data demonstrate a competitive effect of all three compounds	–	–
O=C(O)COc1ccc2ccccc2c1 [2-NOA]	these data demonstrate a competitive effect of all three compounds	2-NOA bound LAX3 fully occluded: PDB 9H63 and EMD-51896	–
O=C(O)Cc1c[nH]c2ccccc12 [IAA]	–	–	IAA-bound LAX3 inward semi-occluded: PDB 9H61 and EMD-51894
